Assays:
Format in all cases: cell-based, human
HPAEC [1] = assay: Transwell transendothelial permeability assay (FITC-dextran); conditions: 1 μM (3R, 3S 25 μM), 1 h before FITC-dextran, 2-h incubation
Protocol: As a complementary approach to further characterize the barrier-protective effects of these FTY720 analogs in vitro, the permeability of FITC-labeled dextran across the pulmonary EC monolayer was assayed in response to treatment by the FTY720 analogs. […] Data were normalized to unstimulated control. n=3 independent experiments per condition; *, p<0.01 versus unstimulated condition (see FIG. 26).

HPAEC [2] = assay: Immunofluorescence of F-actin cytoskeletal rearrangement; conditions: 1 μM, 5 min (FTY720 5 and 30 min)
Protocol: Immunofluorescence was used to assess cytoskeletal rearrangements of […] cells in response to treatment with FTY720 analogs. Confluent HPAEC were stimulated with vehicle control or 1 μM S1P, 1R, 2R, or 3R for 5 min or with FTY720 (1 μM) for 30 min. EC were then fixed in 3.7% formaldehyde for 10 min, permeabilized with 0.25% Triton X-100 for 5 min, washed in PBS, blocked with 2% bovine serum albumin in Tris-buffered saline with Tween 20 for 1 h, and then incubated for 1 h at room temperature with the primary antibody of interest. After washing, EC were incubated with the appropriate secondary antibody conjugated to immunofluorescent dyes (or Texas Red-conjugated phalloidin for actin staining) for 1 h at room temperature. After further washing with Tris-buffered saline with Tween 20, coverslips were mounted using Prolong Anti-Fade Reagent (Invitrogen) and analyzed using a Nikon Eclipse TE2000 inverted microscope (Nikon, Melville, N.Y.).

HPAEC [3] = assay: Intracellular calcium by Fura-2; conditions: 1 μM
Protocol: To further explore the mechanistic differences in barrier regulation, intracellular calcium responses to the FTY720 analogs, S1P, and FTY720 were examined using Fura-2 (Harbeck et al., 2006, Sci STKE 2006: p16). HPAEC plated on 25-mm glass coverslips were loaded with 1 μM Fura-2/acetoxymethyl ester (Invitrogen, Carlsbad, Calif.) for 20 min at 37° C. in KRBH5 buffer (Krebs-Ringer-bicarbonate solution containing 119 mM NaCl, 4.7 mM KCl, 2.5 mM CaCl2, 1 mM MgCl2, 1 mM KH2PO4, 25 mM NaHCO3, mM HEPES-NaOH (pH 7.4), and 5 mM glucose). After replacement of the Fura-2 loading buffer with fresh KRBH5, coverslips were placed into the specimen stage of an inverted fluorescence microscope (Nikon TE-2000U). A Nikon Super Fluor 10× objective was used for these studies. Filters (340- and 380-nm excitation and 530-nm emission) were used for Fura-2 dual excitation ratio imaging. […] Fura-2 ratios were converted to [Ca^2+] using the equation: [Ca^2+]=(Kd′[(R−Rmin)/(Rmax−R)]×Sf/Sb) (Grynkiewicz et al., 1985, J Biol Chem 260: 3440-3450), where Kd′ is the dissociation constant for Fura-2 in the cytosol (225 nM) and Sf and Sb are the measured emission intensities at 380 nm for Ca^2+-free and Ca^2+-bound Fura-2, respectively. Data summaries for all Ca^2+ measurements are expressed as the means±S.E.

`CCCCCCCCc1ccc(CCC(N)(CO)CO)cc1` [FTY720, 2-amino-2-[2-(4-octylphenyl)ethyl]propane-1,3-diol] was tested, and the “EC permeability to FITC-dextran vs control EC” value (HPAEC [1]) was “significantly decreased permeability”, the “cortical actin ring formation / F-actin rearrangement” value (HPAEC [2]) was “failed to elicit cortical actin ring formation” and the “intracellular calcium [Ca2+]i” value (HPAEC [3]) was “only S1P produced a transient Ca^2+ spike”.
